Laboratory results published in patent US5334583A (priority 1982, dated 1994).

Assays:
Format in all cases: in vivo
[1] = tested on: Influenza B/Hong Kong/5/72; experiment: Survival of mice infected intranasally with lethal dose of Influenza B/Hong Kong/5/72; conditions: intranasal, day -7, 0.1 mg/kg single dose; control 30
[2] = tested on: Encephalomyocarditis; experiment: Survival of mice infected intranasally with lethal dose of Encephalomyocarditis virus; conditions: oral, control 30
[3] = tested on: Herpes Simplex 1/TUP; experiment: Survival of mice infected intranasally with lethal dose of Herpes Simplex 1/TUP; conditions: intranasal, day -7, 0.1 mg/kg single dose; control 20
Protocol: Groups of 30, 40 or 50 female MF-2f SPF mice each having a body weight of 14-16 g, or of 12-14 g in the case of tests with herpes simplex 1 viruses, are infected intranasally, under light anaesthesia using a mixture of equal parts of ether, ethanol and chloroform, with lethal doses (approximately LD80-90; number of plaque-forming units [PFU] see Table 1 ) of the undermentioned virus strains in the form of 0.05 ml in each case of a suspension of the viruses.
At the time indicated below (days) in relation to the day of infection, 10 or 20 of these mice are administered once (single dose) the quantities indicated in Table 1 of the active ingredient, the sodium salt of N-acetylmuramyl-L-alanyl-D-isoglutaminyl-L-alanine-2-(1,2-dipalmitoyl-sn-glycero-3-hydroxyphosphoryloxy)-ethylamide (compound I), in 0.05 ml or 0.1 ml of phosphate-buffered salt solution (PBS) or in 0.2 ml of a 0.05 % by weight solution of sodium carboxymethylcellulose in double-distilled water, by means of intranasal, intravenous or oral administration respectively, in the manner indicated in Table 1 .
The remainder of the above-mentioned mice, that is 20 or 30, serve as the control, that is to say they either receive no treatment or are given a placebo.
The intranasal administration of compound I is effected under light anaesthesia using a mixture of equal parts of diethyl ether, ethanol and chloroform.

[4] = tested on: Herpes Simplex 1/Virtue; experiment: Survival of mice infected intranasally with lethal dose of Herpes Simplex 1/Virtue; conditions: intranasal, day -7, 0.1 mg/kg single dose; control 40
[5] = tested on: Herpesvirus hominis 2/Angelotti; experiment: Topical chemotherapy of Herpes genitalis in guinea pigs, local symptoms; conditions: for Animals [%] with regression of symptoms of ≥ 66% on day 7 / Animals [%] with regression of symptoms of ≥ 66% on day 10 / Animals [%] with regression of symptoms of ≥ 66% on day 12 / Animals [%] with regression of symptoms of ≥ 66% on day 14 / Symptom-free animals [%] on day 10 / Symptom-free animals [%] on day 12 / Symptom-free animals [%] on day 14 / Symptom-free animals [%] on day 21: placebo 0, untreated 0; for Symptom-free animals [%] on day 34: placebo 0, untreated 20
Source text: The number indicated in the following Table of female albino guinea pigs of the Pirbright strain (150-180 g body weight) are infected intravaginally with ~10^4 PFU (plaque-forming units) of Herpesvirus hominis 2/Angelotti, cultivated in HEL (human embryonal lungs) cells, as described in B. Lukas et. al., Arch. ges. Virusforsch. 44, 153-155 (1974) .
At the time indicated in the following Table (the time difference in days in relation to the day of infection, - [minus] indicating a time before infection) the number N of guinea pigs indicated in Table 2 are treated intravaginally with a single dose of in each case 0.1 ml of a gel containing the concentration of compound I indicated in Table 2.
The gel without active ingredient has the following composition:
2.25 % sodium carboxymethylcellulose (Hercules, USA)
made up to 100 % with bi-distilled water.
The effect of the treatment can be seen in Table 2.
The symptoms occurring in untreated animals are described in B. Lukas et al., Arch. Virol. 49, 1-11 (1975) .

[6] = tested on: vaccinal virus IHD; experiment: Tail lesions in mice infected intravenously with vaccinal virus IHD; conditions: 1 mg/kg oral; for Number of tail lesions (mean ± standard deviation) on day +7 / Number of tail lesions (mean ± standard deviation) on day +9: control 4.3 ± 1.9; for Number of tail lesions (mean ± standard deviation) on day +12: control 4.6 ± 1.8; for Number of tail lesions (mean ± standard deviation) on day +10: control 5.9 ± 1.9
Protocol: Groups of 20 female Tif:MF-2f (SPF) mice each having a body weight of 14-16 g are infected intravenously, under light anaesthesia using a mixture of equal parts of diethyl ether, ethanol and chloroform, with 2×10^3 PFU vaccinal virus IHD in the form of in each case 0.1 ml of a suspension of the virus in beef heart infusion broth.
10 of these mice from each of the above-mentioned groups are treated on the fourth or sixth day after infection, that is to say on day +4 or +6 (administration day), with a single oral administration of 1 mg/kg of compound I in 0.2 ml of a 0.05 % by weight aqueous solution of sodium carboxymethylcellulose.
The remaining 10 mice from each of the above-mentioned groups serve as the controls and receive a placebo.
On the seventh, ninth, tenth and twelfth day after infection the number of tail lesions in the mice is determined, this being carried out substantially as described by J. J. Boyle, R. F. Haff and R. C. Stewart in Antimicrobial Agents and Chemotherapy, 536-539 (1967), and it should be noted that the first tail lesions can be identified only on the sixth or seventh day.

[7] = 0.1 ml gel 0.1 % intravaginal, single dose day +4, N 13
[8] = 0.1 ml gel 0.1 % intravaginal, single dose day -7, N 14
[9] = 0.1 ml gel 1.0 % intravaginal, single dose day +4, N 14
[10] = 0.1 ml gel 1.0 % intravaginal, single dose day -7, N 14
[11] = single administration on day +4
[12] = single administration on day +6

**Q.** Which Percentage survivors [1] does the source give for `CCCCCCCCCCCCCCCC(=O)OC[C@H](COP(=O)(O)OCCNC(=O)[C@H](C)NC(=O)CC[C@@H](NC(=O)[C@H](C)NC(=O)[C@@H](C)O[C@H]1[C@H](O)[C@@H](CO)OC(O)[C@@H]1NC(C)=O)C(N)=O)OC(=O)CCCCCCCCCCCCCCC` (stereo partly drawn) [compound I, N-acetylmuramyl-L-alanyl-D-isoglutaminyl-L-alanine-2-(1,2-dipalmitoyl-sn-glycero-3-hydroxyphosphoryloxy)-ethylamide] here?
**A.** 80%

**Q.** And the Percentage survivors ([2]; day +4, 1 mg/kg single dose)?
**A.** 90%

**Q.** What about the Percentage survivors ([2]; day +4, 10 mg/kg single dose) of the same compound?
**A.** 70%

**Q.** And the Percentage survivors ([2]; day +4, 100 mg/kg single dose)?
**A.** 100%

**Q.** What about the Percentage survivors [3] of the same compound?
**A.** 60%

**Q.** What about the Percentage survivors [4] of the same compound?
**A.** 70%

**Q.** What about the “Animals [%] with regression of symptoms of ≥ 66% on day 7” value (“Animals [%] with regression … on day 7” for short) [5, 7] of the same compound?
**A.** 62%

**Q.** What about the “Animals [%] with regression of symptoms of ≥ 66% on day 10” value (“Animals [%] with regression … on day 10” for short) [5, 7] of the same compound?
**A.** 85%

**Q.** What about the “Animals [%] with regression of symptoms of ≥ 66% on day 12” value (from here on “Animals [%] with regression … on day 12”) [5, 7] of the same compound?
**A.** 100%

**Q.** What about the “Animals [%] with regression of symptoms of ≥ 66% on day 14” value (from here on “Animals [%] with regression … on day 14”) [5, 7] of the same compound?
**A.** 93%

**Q.** What about the “Symptom-free animals [%] on day 10” value [5, 7] of the same compound?
**A.** 70%

**Q.** What about the “Symptom-free animals [%] on day 12” value [5, 7] of the same compound?
**A.** 77%

**Q.** And the “Symptom-free animals [%] on day 14” value [5, 7]?
**A.** 85%

**Q.** What about the “Symptom-free animals [%] on day 21” value [5, 7] of the same compound?
**A.** 100%

**Q.** What about the “Symptom-free animals [%] on day 34” value [5, 7] of the same compound?
**A.** 100%

**Q.** And the “Animals [%] with regression … on day 7” value [5, 8]?
**A.** 21%

**Q.** What about the “Animals [%] with regression … on day 10” value [5, 8] of the same compound?
**A.** 57%

**Q.** And the “Animals [%] with regression … on day 12” value [5, 8]?
**A.** 86%

**Q.** What about the “Animals [%] with regression … on day 14” value [5, 8] of the same compound?
**A.** 100%

**Q.** What about the “Symptom-free animals [%] on day 10” value [5, 8] of the same compound?
**A.** 43%

**Q.** And the “Symptom-free animals [%] on day 12” value [5, 8]?
**A.** 64%

**Q.** What about the “Symptom-free animals [%] on day 14” value [5, 8] of the same compound?
**A.** 86%

**Q.** And the “Symptom-free animals [%] on day 21” value [5, 8]?
**A.** 86%

**Q.** What about the “Symptom-free animals [%] on day 34” value [5, 8] of the same compound?
**A.** 100%

**Q.** What about the “Animals [%] with regression … on day 7” value [5, 9] of the same compound?
**A.** 79%

**Q.** What about the “Animals [%] with regression … on day 10” value [5, 9] of the same compound?
**A.** 79%

**Q.** What about the “Animals [%] with regression … on day 12” value [5, 9] of the same compound?
**A.** 86%

**Q.** What about the “Animals [%] with regression … on day 14” value [5, 9] of the same compound?
**A.** 93%

**Q.** What about the “Symptom-free animals [%] on day 10” value [5, 9] of the same compound?
**A.** 36%

**Q.** And the “Symptom-free animals [%] on day 12” value [5, 9]?
**A.** 64%

**Q.** What about the “Symptom-free animals [%] on day 14” value [5, 9] of the same compound?
**A.** 79%

**Q.** What about the “Symptom-free animals [%] on day 21” value [5, 9] of the same compound?
**A.** 86%

**Q.** And the “Symptom-free animals [%] on day 34” value [5, 9]?
**A.** 100%

**Q.** And the “Animals [%] with regression … on day 7” value [5, 10]?
**A.** 29%

**Q.** What about the “Animals [%] with regression … on day 10” value [5, 10] of the same compound?
**A.** 79%

**Q.** What about the “Animals [%] with regression … on day 12” value [5, 10] of the same compound?
**A.** 71%

**Q.** And the “Animals [%] with regression … on day 14” value [5, 10]?
**A.** 93%

**Q.** And the “Symptom-free animals [%] on day 10” value [5, 10]?
**A.** 21%

**Q.** What about the “Symptom-free animals [%] on day 12” value [5, 10] of the same compound?
**A.** 57%

**Q.** And the “Symptom-free animals [%] on day 14” value [5, 10]?
**A.** 86%

**Q.** What about the “Symptom-free animals [%] on day 21” value [5, 10] of the same compound?
**A.** 86%

**Q.** What about the “Symptom-free animals [%] on day 34” value [5, 10] of the same compound?
**A.** 100%

**Q.** And the “Number of tail lesions (mean ± standard deviation) on day +7” value [6, 11]?
**A.** 0.9 ± 0.7

**Q.** What about the “Number of tail lesions (mean ± standard deviation) on day +9” value [6, 11] of the same compound?
**A.** 0.9 ± 0.9

**Q.** And the “Number of tail lesions (mean ± standard deviation) on day +12” value [6, 11]?
**A.** 0.2 ± 0.4

**Q.** What about the “Number of tail lesions (mean ± standard deviation) on day +10” value [6, 11] of the same compound?
**A.** 0.9 ± 1.4

**Q.** And the “Number of tail lesions (mean ± standard deviation) on day +7” value [6, 12]?
**A.** 1.1 ± 1.4

**Q.** And the “Number of tail lesions (mean ± standard deviation) on day +9” value [6, 12]?
**A.** 0.9 ± 1.6

**Q.** And the “Number of tail lesions (mean ± standard deviation) on day +12” value [6, 12]?
**A.** 0.5 ± 1.0

**Q.** What about the “Number of tail lesions (mean ± standard deviation) on day +10” value [6, 12] of the same compound?
**A.** 0.3 ± 0.7
